Measurements taken from paper PMC12592418, “Therapeutic potential of red bean (phaseolus vulgaris) peptides: anticancer, antihypertension, and antioxidant activities” (Scientific Reports, 2025).
No end group written: not given here.

T1: angiotensin-converting enzyme (ACE) (UniProt P12822)
T1 sequence (P12822 whole entry, species assumed, looked up): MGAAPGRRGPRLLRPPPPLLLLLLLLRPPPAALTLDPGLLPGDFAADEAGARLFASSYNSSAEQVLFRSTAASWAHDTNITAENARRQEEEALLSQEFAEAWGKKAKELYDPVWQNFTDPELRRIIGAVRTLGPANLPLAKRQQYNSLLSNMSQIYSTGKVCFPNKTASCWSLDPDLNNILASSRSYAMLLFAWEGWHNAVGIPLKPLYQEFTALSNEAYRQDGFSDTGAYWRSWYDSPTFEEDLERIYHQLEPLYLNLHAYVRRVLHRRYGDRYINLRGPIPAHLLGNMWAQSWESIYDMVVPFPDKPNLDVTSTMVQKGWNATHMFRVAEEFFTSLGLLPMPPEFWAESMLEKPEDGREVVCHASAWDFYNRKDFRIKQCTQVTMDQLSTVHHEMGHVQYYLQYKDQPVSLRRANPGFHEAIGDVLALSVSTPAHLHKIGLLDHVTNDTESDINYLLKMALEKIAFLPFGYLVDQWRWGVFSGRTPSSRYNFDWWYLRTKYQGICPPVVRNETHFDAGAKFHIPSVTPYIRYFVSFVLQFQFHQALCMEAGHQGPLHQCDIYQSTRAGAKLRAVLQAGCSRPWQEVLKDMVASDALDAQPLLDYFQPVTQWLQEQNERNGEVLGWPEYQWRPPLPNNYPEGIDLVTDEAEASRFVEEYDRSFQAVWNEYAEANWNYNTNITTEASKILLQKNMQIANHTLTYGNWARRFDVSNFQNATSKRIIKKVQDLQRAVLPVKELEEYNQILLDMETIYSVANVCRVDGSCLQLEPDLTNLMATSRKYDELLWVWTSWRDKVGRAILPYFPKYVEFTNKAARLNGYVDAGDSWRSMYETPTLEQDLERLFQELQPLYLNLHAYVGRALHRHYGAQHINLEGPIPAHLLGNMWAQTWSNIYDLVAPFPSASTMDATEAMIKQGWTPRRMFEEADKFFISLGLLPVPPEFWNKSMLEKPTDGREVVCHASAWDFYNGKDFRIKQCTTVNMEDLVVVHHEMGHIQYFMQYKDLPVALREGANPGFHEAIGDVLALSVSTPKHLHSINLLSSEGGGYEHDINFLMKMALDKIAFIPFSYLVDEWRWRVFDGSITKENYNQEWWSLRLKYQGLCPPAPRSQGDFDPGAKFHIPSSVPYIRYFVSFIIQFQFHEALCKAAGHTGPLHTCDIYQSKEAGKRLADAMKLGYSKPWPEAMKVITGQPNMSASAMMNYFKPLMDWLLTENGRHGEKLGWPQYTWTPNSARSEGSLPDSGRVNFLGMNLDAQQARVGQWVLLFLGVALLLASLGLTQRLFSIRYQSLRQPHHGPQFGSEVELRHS

B1: RB-2 (peptide)
peptide: DHPTGGL
B2: RB-3 (peptide)
peptide: SPTPPKNVPF
B3: RB-6 (peptide)
peptide: RRLRILL
B4: RB-8 (peptide)
peptide: LIIPATSTKFL
B5: RB-7 (peptide)
peptide: RGSKQRQKRQW
B6: RB-4 (peptide)
peptide: GSEIRSTSDDVL
B7: RB-1 (peptide)
peptide: NLRKLKRL
B8: RB-5 (peptide)
peptide: APANGSAF

Biological target: T1, angiotensin-converting enzyme (ACE)
Experiment: not given
Conditions: not given

Molecule	Antihypertension (%): percent inhibition of ACE activity (hydrolysis of hippuryl-L-histidyl-L-leucine) at 100 µg/ml peptide [%]
B1	0
B2	20
B3	46.7
B4	16.7
B5	60
B6	13.3
B7	20
B8	43.3

System: CaCO2 cells
Experiment: MTT cell viability assay, CaCO2
Type: cell-based, human
Conditions: synthetic peptide 100 µg/ml, 24 h, mean ± SD, n = 3
Protocol: (§1) CaCO2, HepG2, MCF-7, NCI-H460, SiHa, SW620, and Vero cells were obtained from the American Type Culture Collection (ATCC, Manassas, VA, USA). Cells were cultured in Dulbecco’s Modified Eagle’s Medium (DMEM; PAA, Pasching, Austria), supplemented with 10% (v/v) fetal bovine serum (Gibco, South America), 10 mM HEPES (HyClone, Utah, USA), 2 mM L-glutamine, and 100 U/mL penicillin and 100 µg/mL streptomycin. Cultures were maintained at 37 °C in a humidified atmosphere containing 5% CO₂.
(§2) The anticancer activity of protein hydrolysates and synthetic peptides against CaCO2, HepG2, MCF-7, NCI-H460, SiHa, SW620, and Vero cells were evaluated using the MTT assay. Cells were seeded into 96-well plates (Nunc™, Roskilde, Denmark) at a density of 2 × 10⁴ cells per well, and allowed to adhere. Following seeding, cells were treated with 100 µg/mL of protein hydrolysates or synthetic peptides for 24 h, while untreated cells served as controls. After 24 h, 20 µL of MTT solution (5 mg/mL; Sigma, St. Louis, MO, USA) was added to each well and incubated for an additional 3 h. The supernatant was then removed, and 100 µL of DMSO was added to each well to dissolve the formazan crystals. Optical density (OD) was measured at 540 nm using a microplate reader (Rayto RT-2100 C, China). Cell viability was calculated using the equation: (OD of treated cells/OD of untreated cells) × 100.
(§3) The IC50 values were calculated from a fitted semi-log response curve, plotting cell viability percentages against concentration. These values were determined using the AAT-Bioquest IC50 calculator (https://www.aatbio.com/tools/ic50-calculator).

Molecule	Inhibitory percentage, CaCO2 [%]
SPTPPKNVPF [RB-3]	7.88±0.08
LIIPATSTKFL [RB-8]	20.79±1.23
RRLRILL [RB-6]	19.32±0.18
GSEIRSTSDDVL [RB-4]	11.27±0.07

System: HepG2 cells
Experiment: MTT cell viability assay, HepG2
Type: cell-based, human
Conditions: synthetic peptide 100 µg/ml, 24 h, mean ± SD, n = 3
Protocol: as §1, §2, §3

Molecule	Inhibitory percentage, HepG2 [%]
SPTPPKNVPF [RB-3]	0
RRLRILL [RB-6]	0
GSEIRSTSDDVL [RB-4]	0

System: MCF-7 cells
Experiment: MTT cell viability assay, MCF-7
Type: cell-based, human
Conditions: synthetic peptide 100 µg/ml, 24 h, mean ± SD, n = 3
Protocol: as §1, §2, §3

Molecule	Inhibitory percentage, MCF-7 [%]
SPTPPKNVPF [RB-3]	0
RRLRILL [RB-6]	0
GSEIRSTSDDVL [RB-4]	0

System: NCI-H460 cells
Experiment: MTT cell viability assay, NCI-H460
Type: cell-based, human
Conditions: synthetic peptide 100 µg/ml, 24 h, mean ± SD, n = 3
Protocol: as §1, §2, §3

Molecule	Inhibitory percentage, NCI-H460 [%]
SPTPPKNVPF [RB-3]	0
RRLRILL [RB-6]	0

Same assay, conditions: synthetic peptide 100 µg/ml, 24 h, mean ± SD, n = 3, SD

Molecule	Inhibitory percentage, NCI-H460 [%]
GSEIRSTSDDVL [RB-4]	6.08±0.01

System: SiHa cells
Experiment: MTT cell viability assay, SiHa
Type: cell-based, human
Conditions: synthetic peptide 100 µg/ml, 24 h, mean ± SD, n = 3
Protocol: as §1, §2, §3

Molecule	Inhibitory percentage, SiHa [%]
SPTPPKNVPF [RB-3]	12.36±0.02
RRLRILL [RB-6]	9.72±0.02
GSEIRSTSDDVL [RB-4]	11.45±0.00

System: SW620 cells
Experiment: MTT cell viability assay, SW620
Type: cell-based, human
Conditions: synthetic peptide 100 µg/ml, 24 h, mean ± SD, n = 3
Protocol: as §1, §2, §3

Molecule	Inhibitory percentage, SW620 [%]
SPTPPKNVPF [RB-3]	0
RRLRILL [RB-6]	0
GSEIRSTSDDVL [RB-4]	0

System: Vero cells
Experiment: MTT cell viability assay, Vero
Type: cell-based, monkey
Conditions: synthetic peptide 100 µg/ml, 24 h, mean ± SD, n = 3
Protocol: as §1, §2, §3

Molecule	Inhibitory percentage, Vero [%]
SPTPPKNVPF [RB-3]	0
RRLRILL [RB-6]	0
GSEIRSTSDDVL [RB-4]	0

System: angiotensin-converting enzyme (ACE)
Experiment: ACE inhibitory activity assay (HHL substrate)
Type: biochemical
Conditions: peptide 100 µg/ml, ACE 0.2 U/mL, 5 mM HHL, phosphate buffer pH 6.8, 37 °C, mean ± SD, n = 3; SD
Protocol: The method utilized here is a spectrophotometric method based on the commonly used method introduced by Cushman and Cheung (1971)[45]. The 5 ul of sample was preincubated with 45 ul of ACE enzyme (0.2 U/mL) in 100 mM Phosphate buffer (pH 6.8) and incubated for 10 min at 37 °C. Enzyme activity was assayed by monitoring the hydrolysis of hippuryl-L-histidyl-L-leucine (HHL). After adding 50 µL of a 5 mM HHL substrate solution, the increase in absorbance at 405 nm was measured every minute for 15 min at 37 °C using a 96-well microplate reader. The initial velocity was determined from the linear portion of the curve, and the inhibitory activity was expressed as a percentage calculated using the following equation:
% inhibition = (1-(B-b)/(A-a)) x 100,
where A is an initial velocity of the control reaction with enzyme (control), a is an initial velocity of the control reaction without enzyme (control blank), B is an initial velocity of the enzyme reaction with sample and b is an initial velocity of the reaction with sample but without enzyme (sample blank).

Molecule	Antihypertension (%), percentage inhibition of ACE [%]
SPTPPKNVPF [RB-3]	20.00±1.02
RRLRILL [RB-6]	46.67±0.36
GSEIRSTSDDVL [RB-4]	13.33±0.60

System: not listed separately
Experiment: ABTS radical scavenging assay
Type: physicochemical
Conditions: peptide 100 µg/ml, 5 min in the dark, absorbance 750 nm, mean ± SD, n = 3
Protocol: Radical scavenging antioxidant activity was determined according to the ABTS radical scavenging activity following the method described by Re et al.[46] with slight modifications. Briefly, the solution of ABTS radical was prepared from the reaction between 7 mM ABTS (2,2-azino-bis (3-ethylbenzothiazoline-6-sulphonic acid) diammonium salt) and 2.45 mM ammonium persulphate. The resulting ABTS solution was diluted with distilled water to achieve an optical density of 0.7 at 750 nm. Then, a sample or standard of 10 µL was mixed with 190 µL of ABTS solution and incubated for 5 min in the dark. The absorbance was measured at 750 nm by a microplate reader (Rayto RT-2100 C, China). Ascorbic acid was used as the standard.

Molecule	Antioxidant, ABTS
SPTPPKNVPF [RB-3]	274.73±0.27 µg ascorbic acid equivalent
RRLRILL [RB-6]	595.33±18.41 µg ascorbic acid equivalent
GSEIRSTSDDVL [RB-4]	539.58±3.43 µg ascorbic acid equivalent

System: not listed separately
Experiment: DPPH radical scavenging assay
Type: physicochemical
Conditions: peptide 100 µg/ml, 0.1 mM DPPH, 30 min in the dark, room temperature, absorbance 517 nm, mean ± SD, n = 3
Protocol: The DPPH radical scavenging activity of the sample was evaluated following the protocol by Muangrod et al.[48] with slight modifications. Briefly, 190 µL of 0.1 mM DPPH was mixed with 10 µL of the sample or standard ascorbic acid in each well and incubated at room temperature in the dark for 30 min. The absorbance of the mixture was measured at 517 nm using a microplate reader (Rayto RT-2100 C, China). Ascorbic acid was used as the standard. Results were expressed as micrograms ascorbic acid equivalent (µg AAE g^−1).

Molecule	Antioxidant, DPPH
SPTPPKNVPF [RB-3]	227.13±1.55 µg ascorbic acid equivalent
RRLRILL [RB-6]	584.66±4.15 µg ascorbic acid equivalent
GSEIRSTSDDVL [RB-4]	424.61±1.53 µg ascorbic acid equivalent

System: not listed separately
Experiment: FRAP ferric ion-reducing antioxidant power assay
Type: physicochemical
Conditions: peptide 100 µg/ml, 30 min in the dark, absorbance 593 nm, mean ± SD, n = 3
Protocol: The ferric ion-reducing antioxidant power assay was analyzed according to the method by Rumpf et al.[47] with minor modifications. Briefly, the FRAP reagent was prepared from 300 mM sodium acetate (pH 3.6) and 10 mM TPTZ (2,4,6-tris (2-pyridyl)-s-triazine) in 40 mM HCl and 20 mM ferric chloride at the ratio of 10:1:1, respectively. Then, a 10 µL aliquot of the sample or standard was mixed with 190 µL of the FRAP reagent before incubating in the dark for 30 min. The absorbance was measured at 593 nm using a microplate reader (Rayto RT-2100 C, China). Ascorbic acid was used as the standard. Results were expressed as micrograms of ascorbic acid equivalent per gram (µg AAE g^−1).

Molecule	Antioxidant, FRAP
SPTPPKNVPF [RB-3]	58.05±0.09 µg ascorbic acid equivalent
RRLRILL [RB-6]	120.46±0.07 µg ascorbic acid equivalent
GSEIRSTSDDVL [RB-4]	128.47±0.86 µg ascorbic acid equivalent
